Data from article PMC9967275, “Screening the Pathogen Box to Discover and Characterize New Cruzain and TbrCatL Inhibitors” (Pathogens, 2023).
“Also recorded” adds a separate entry of the source. Read-outs that look alike come from different tables or passages of the source.

Experiments:
cruzain [1] = molecular target: T1, cruzain (Trypanosoma cruzi, UniProt P25779); assay: Aggregation counter-assays: cruzain inhibition at varying Triton X-100 and after pre-incubation with BSA; assay type: biochemical; design: Cruzain is the truncated, recombinant-expressed cruzipain 1; Brian Shoichet (University of California San Francisco); details: for % Cruzain Inhibition (Mean ± SEM) 0.001% Triton + BSA 1 mg/mL / % Cruzain Inhibition (Mean ± SEM) 0.001% Triton X-100 / % Cruzain Inhibition (Mean ± SEM) 0.1% Triton X-100 / % Cruzain Inhibition (Mean ± SEM) 0.01% Triton X-100: compound µM: MMV687246 12.5, MMV687812 3.125, MMV688179 1.563, MMV688362 3.125, MMV688466 6.25, MMV690028 25
T1 sequence (P25779 123-337 limits assumed): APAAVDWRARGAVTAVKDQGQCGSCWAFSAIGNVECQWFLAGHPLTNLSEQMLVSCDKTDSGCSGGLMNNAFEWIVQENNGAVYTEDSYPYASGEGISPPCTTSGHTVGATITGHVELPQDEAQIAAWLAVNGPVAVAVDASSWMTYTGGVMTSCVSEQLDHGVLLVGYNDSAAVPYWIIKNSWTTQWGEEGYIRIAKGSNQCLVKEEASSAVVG
Protocol: To assess the effects of the Triton X-100 concentration on cruzain inhibition, assays were performed using 0.001%, 0.01%, and 0.1% Triton X-100. To evaluate the impact of pre-incubation with bovine serum albumin (BSA), 50 µL of a solution of the compound in the assay buffer containing 0.001% of Triton X-100 was incubated with 4 mg/mL of BSA (Sigma-Aldrich) for 10′ in a 96-well plate. Next, 50 µL of a solution containing circa 2 nM of cruzain in the same buffer was added to each well and incubated for another 10′. Finally, 100 µL of a solution of 5 µM Z-FR-AMC in the same buffer was added to each well and the fluorescence was immediately read. The final compound concentration varies and was selected to be near the compound IC50.
To investigate if inhibition was due to colloidal aggregation, a common cause of unspecific enzyme inhibition in in vitro assays, we employed two well-established experiments: the comparison of percentages of inhibition at varying Triton X-100 concentrations and the effect of compound pre-incubation with BSA on the percentage of inhibition. […] Pre-incubating a compound that aggregates with BSA saturates the protein-binding capacity of the aggregate.

TbrCatL = molecular target: T2, TbrCatL (Trypanosoma brucei rhodesiense, UniProt Q95PM0); assay: TbrCatL enzymatic inhibition assay (cleavage of fluorogenic substrate Z-FR-AMC); assay type: biochemical
T2 construct: Conor Caffrey (University of California San Diego)
T2 sequence (Q95PM0 entry or part of it): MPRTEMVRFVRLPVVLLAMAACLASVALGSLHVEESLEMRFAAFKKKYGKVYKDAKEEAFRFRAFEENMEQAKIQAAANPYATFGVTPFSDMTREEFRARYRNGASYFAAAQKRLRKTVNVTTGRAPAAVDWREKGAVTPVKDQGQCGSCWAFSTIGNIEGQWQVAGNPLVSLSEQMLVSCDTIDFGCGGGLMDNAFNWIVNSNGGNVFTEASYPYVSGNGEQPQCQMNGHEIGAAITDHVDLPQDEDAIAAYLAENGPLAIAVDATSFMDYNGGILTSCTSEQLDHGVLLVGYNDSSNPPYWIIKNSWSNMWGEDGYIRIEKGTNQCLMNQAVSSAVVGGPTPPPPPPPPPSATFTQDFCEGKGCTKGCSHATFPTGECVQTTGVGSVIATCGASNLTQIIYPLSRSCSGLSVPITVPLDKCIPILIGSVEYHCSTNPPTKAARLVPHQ
How it was run: (§1)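 Recombinant enzymes assayed by Z-Phe-Arg-AMC cleavage at 25 °C, fluorescence 340/440 nm over 5–7 min, with 10 min or no enzyme–compound preincubation.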

cruzain [2] = molecular target: T1, cruzain; assay: biochemical
How it was run: as §1

cruzain [3] = molecular target: T1, cruzain; assay: Mechanism of inhibition against cruzain (Michaelis-Menten, Lineweaver-Burk); assay type: biochemical; design: Cruzain is the truncated, recombinant-expressed cruzipain 1; Brian Shoichet (University of California San Francisco)
Protocol: Non-linear regression to Michaelis-Menten models and linear regression for the Lineweaver-Burk plot were performed. Ki was estimated by both methods. The effect of the inhibitor concentration on the Km app was evaluated using the General Linear F-test.

DNA minor groove = test system: DNA minor groove; design: method as in PMID 18247550, PMID 22497334; details: SPR, ITC, CD, and Tm experiments; cited from earlier work
T. cruzi = details: ref Pathogen Box data; read-out: EC50 against T. cruzi reported on PB; cited from earlier work
[4] = IC50 (µM ± SEM %) TbrCatL 0′, no pre-incubation
[5] = IC50 (µM ± SEM %) TbrCatL 10′ inc, 10′ pre-incubation
[6] = read-out: Inhibition at 5 µM (Mean ± SEM %) TbrCatL 0′
[7] = read-out: Inhibition at 5 µM (Mean ± SEM %) TbrCatL 10′ inc
[8] = read-out: Inhibition at 100 µM (Mean ± SEM %) TbrCatL 0′
[9] = read-out: Inhibition at 100 µM (Mean ± SEM %) TbrCatL 10′ inc
[10] = read-out: TbrCatL 0’ Inhibition
[11] = read-out: TbrCatL 10’ Inhibition
[12] = IC50 (µM ± SEM %) Cruzain 0′, no pre-incubation
[13] = IC50 (µM ± SEM %) Cruzain 10′ inc, 10′ pre-incubation
[14] = IC50 against cruzain and TbrCatL (summary), cruzain and TbrCatL, with or without pre-incubation
[15] = read-out: Cruzain 0’ Inhibition, 0’ (pre-incubation time), sheet "Screening results"
[16] = read-out: Cruzain 10’ Inhibition, 10’ (pre-incubation time), sheet "Screening results"
[17] = read-out: Inhibition at 5 µM (Mean ± SEM %) Cruzain 0′, 5 µM, no pre-incubation, initial screening
[18] = read-out: Inhibition at 5 µM (Mean ± SEM %) Cruzain 10′ inc, 5 µM, 10′ pre-incubation, initial screening
[19] = read-out: Inhibition at 100 µM (Mean ± SEM %) Cruzain 0′, 100 µM, no pre-incubation, solid samples
[20] = read-out: Inhibition at 100 µM (Mean ± SEM %) Cruzain 10′ inc, 100 µM, 10′ pre-incubation, solid samples
[21] = read-out: Inhibition of cruzain or TbrCatL (either enzyme) in the initial screening, 5 µM, either cruzain or TbrCatL, with or without pre-incubation

SMILES: CN1CCN(CCCOc2ncc(Nc3ncc(-c4ccc(C(F)(F)F)c(F)c4)nc3C(N)=O)cn2)CC1 [MMV687812]
- % Cruzain Inhibition (Mean ± SEM) 0.001% Triton + BSA 1 mg/mL (cruzain [1]): 85 ± 1%
- % Cruzain Inhibition (Mean ± SEM) 0.001% Triton X-100 (cruzain [1]): 92 ± 0%
- % Cruzain Inhibition (Mean ± SEM) 0.1% Triton X-100 (cruzain [1]): 54 ± 1%
- Effect of a 10-fold increase in the concentration of Triton X-100 on cruzain inhibition (cruzain [1]; near the IC50): some reduction in the inhibition
- Effect of pre-incubation of the compound with BSA on cruzain inhibition (cruzain [1]; near the IC50): did not reduce the inhibition of cruzain
- IC50 (TbrCatL; [4]): 3.45 ± 0.05 µM
- IC50 (TbrCatL; [5]): 3.6 ± 0.3 µM
- inhibition at 5 µM (TbrCatL; [6]): 11 ± 3%
- inhibition at 5 µM (TbrCatL; [7]): 5 ± 1%
- inhibition at 100 µM (TbrCatL; [8]): 90 ± 2%
- inhibition at 100 µM (TbrCatL; [9]): 93%
- inhibition at 5 µM (TbrCatL; [10]): 11%
- inhibition at 5 µM (TbrCatL; [11]): 5.3%
- IC50 (cruzain [2]; [12]): 2.2 ± 0.3 µM
- IC50 (cruzain [2]; [13]): 2.6 ± 0.03 µM
- IC50 (cruzain [2]; [14]): 2 to 4 µM
- inhibition at 5 µM (cruzain [2]; [15]): 42%
- inhibition at 5 µM (cruzain [2]; [16]): 27%
- inhibition at 5 µM (cruzain [2]; [17]): 41 ± 2%
- inhibition at 5 µM (cruzain [2]; [18]): 27%
- inhibition at 100 µM (cruzain [2]; [19]): 100%
- inhibition at 100 µM (cruzain [2]; [20]): 95%
- inhibition at 5 µM (cruzain [2]; [21]): ≥ 40%

SMILES: CN1CCN(S(=O)(=O)c2ccc(-c3ccc4c(Nc5ccc6nn[nH]c6c5)ccnc4c3)cc2)CC1 [MMV687246]
- % Cruzain Inhibition (Mean ± SEM) 0.001% Triton + BSA 1 mg/mL (cruzain [1]): 45 ± 1%
- % Cruzain Inhibition (Mean ± SEM) 0.001% Triton X-100 (cruzain [1]): 62 ± 3%
- % Cruzain Inhibition (Mean ± SEM) 0.01% Triton X-100 (cruzain [1]): 51 ± 0%
- % Cruzain Inhibition (Mean ± SEM) 0.1% Triton X-100 (cruzain [1]): 32 ± 2%
- Ki (cruzain [3]): 57 ± 6 µM
- Mechanism of inhibition of cruzain (cruzain [3]): mixed inhibitor; also recorded: mixed inhibition
- α value (mixed inhibition) (cruzain [3]; mixed model): 0.7 ± 0.2
- IC50 (TbrCatL; [4]): 9 ± 3 µM
- IC50 (TbrCatL; [5]): 4.2 ± 0.6 µM
- inhibition at 5 µM (TbrCatL; [6]): 29 ± 1%
- inhibition at 5 µM (TbrCatL; [7]): 49 ± 4%
- inhibition at 100 µM (TbrCatL; [8]): 92 ± 6%
- inhibition at 100 µM (TbrCatL; [9]): 99 ± 1%
- inhibition at 5 µM (TbrCatL; [10]): 29%
- inhibition at 5 µM (TbrCatL; [11]): 49%
- IC50 (cruzain [2]; [12]): 14 ± 5 µM
- IC50 (cruzain [2]; [13]): 10 ± 2 µM
- Change of IC50 with vs without 10′ pre-incubation (cruzain [2]; against cruzain, 10 min): up to 2 fold
- inhibition at 5 µM (cruzain [2]; [15]): 24%
- inhibition at 5 µM (cruzain [2]; [16]): 39%
- inhibition at 5 µM (cruzain [2]; [17]): 24 ± 3%
- inhibition at 5 µM (cruzain [2]; [18]): 39 ± 3%
- inhibition at 100 µM (cruzain [2]; [19]): 72 ± 1%
- inhibition at 100 µM (cruzain [2]; [20]): 92 ± 3%
- inhibition at 5 µM (cruzain [2]; [21]): ≥ 40%

SMILES: Cn1ccnc1CNCCS(=O)(=O)c1cccc(Nc2ccc(-c3cccc(F)c3)cn2)c1 [MMV688466]
- % Cruzain Inhibition (Mean ± SEM) 0.001% Triton + BSA 1 mg/mL (cruzain [1]): 96 ± 3%
- % Cruzain Inhibition (Mean ± SEM) 0.001% Triton X-100 (cruzain [1]): 83 ± 3%
- % Cruzain Inhibition (Mean ± SEM) 0.01% Triton X-100 (cruzain [1]): 32 ± 5%
- % Cruzain Inhibition (Mean ± SEM) 0.1% Triton X-100 (cruzain [1]): 82 ± 11%
- IC50 (TbrCatL; [4]): 4 ± 1 µM
- IC50 (TbrCatL; [5]): 11 ± 4 µM
- inhibition at 5 µM (TbrCatL; [6]): 29 ± 2%
- inhibition at 5 µM (TbrCatL; [7]): 54 ± 8%
- inhibition at 100 µM (TbrCatL; [8]): 96 ± 3%
- inhibition at 100 µM (TbrCatL; [9]): 100%
- IC50 (cruzain [2]; [12]): 9 ± 1 µM
- IC50 (cruzain [2]; [13]): 25 ± 6 µM
- inhibition at 5 µM (cruzain [2]; [17]): 41 ± 2%
- inhibition at 5 µM (cruzain [2]; [18]): 49 ± 5%
- inhibition at 100 µM (cruzain [2]; [19]): 58 ± 27%
- inhibition at 100 µM (cruzain [2]; [20]): 98 ± 1%
- inhibition at 5 µM (cruzain [2]; [21]): ≥ 40%

SMILES: COc1ccc(C2=NN(C3CCCCCC3)C(=O)C2(C)C)cc1OCCCCOc1ccc(-c2nn[nH]n2)cc1 [MMV690028]
- % Cruzain Inhibition (Mean ± SEM) 0.001% Triton + BSA 1 mg/mL (cruzain [1]): 91 ± 7%
- % Cruzain Inhibition (Mean ± SEM) 0.001% Triton X-100 (cruzain [1]): 69 ± 14%
- IC50 (TbrCatL; [4]): 18 ± 7 µM
- IC50 (TbrCatL; [5]): 27 ± 3 µM
- inhibition at 5 µM (TbrCatL; [6]): 49 ± 4%
- inhibition at 5 µM (TbrCatL; [7]): 23 ± 4%
- inhibition at 100 µM (TbrCatL; [8]): 100%
- inhibition at 100 µM (TbrCatL; [9]): 88 ± 3%
- IC50 (cruzain [2]; [12]): 10 ± 3 µM
- IC50 (cruzain [2]; [13]): 13 ± 5 µM
- inhibition at 5 µM (cruzain [2]; [17]): 34 ± 8%
- inhibition at 5 µM (cruzain [2]; [18]): 27 ± 4%
- inhibition at 100 µM (cruzain [2]; [19]): 100%
- inhibition at 100 µM (cruzain [2]; [20]): 100%
- inhibition at 5 µM (cruzain [2]; [21]): ≥ 40%

SMILES: COc1cc(C2=NCCN2)cc2cc(-c3ccc(C4=NCCN4)cc3)oc12 [MMV688362]
- % Cruzain Inhibition (Mean ± SEM) 0.001% Triton + BSA 1 mg/mL (cruzain [1]): 29 ± 3%
- % Cruzain Inhibition (Mean ± SEM) 0.001% Triton X-100 (cruzain [1]): 59 ± 2%
- % Cruzain Inhibition (Mean ± SEM) 0.01% Triton X-100 (cruzain [1]): 41 ± 2%
- % Cruzain Inhibition (Mean ± SEM) 0.1% Triton X-100 (cruzain [1]): 25 ± 2%
- Effect of pre-incubation of the compound with BSA on cruzain inhibition (cruzain [1]; near the IC50): some reduction in the inhibition
- Binding to the DNA minor groove (DNA minor groove): known to bind to the DNA minor groove
- IC50 (TbrCatL; [4]): 2.9 ± 0.8 µM
- IC50 (TbrCatL; [5]): 2.3 ± 0.1 µM
- inhibition at 5 µM (TbrCatL; [6]): 9 ± 1%
- inhibition at 5 µM (TbrCatL; [7]): 43 ± 4%
- inhibition at 100 µM (TbrCatL; [8]): 100%
- inhibition at 100 µM (TbrCatL; [9]): 100%
- inhibition at 5 µM (TbrCatL; [10]): 9%
- inhibition at 5 µM (TbrCatL; [11]): 43%
- IC50 (cruzain [2]; [12]): 4.2 ± 0.6 µM
- IC50 (cruzain [2]; [13]): 2.35 ± 0.02 µM
- IC50 (cruzain [2]; [14]): 2 to 4 µM
- inhibition at 5 µM (cruzain [2]; [15]): 19%
- inhibition at 5 µM (cruzain [2]; [16]): 27%
- inhibition at 5 µM (cruzain [2]; [17]): 19 ± 1%
- inhibition at 5 µM (cruzain [2]; [18]): 27 ± 3%
- inhibition at 100 µM (cruzain [2]; [19]): 100%
- inhibition at 100 µM (cruzain [2]; [20]): 100%
- inhibition at 5 µM (cruzain [2]; [21]): ≥ 40%
- EC50 (T. cruzi): 13 µM
